Test results taken from patent US20170204380A1, “GLYCOSYL TRANSFERASES AND THEIR USES” (TECHNISCHE UNIVERSITAT MUNCHEN, priority 2014, published 2017).
Where a chain is given by its changes, count along the chain named. Where two headings read alike, the source gives them in different places.

How the values were obtained:
VvGT14a [1] = biological target: T1, VvGT14a (Vitis vinifera, UniProt F6H0R6); experiment: Substrate screening, radiochemical analysis with UDP-[14C]glucose; format: biochemical
T1 sequence (F6H0R6 entry or part of it): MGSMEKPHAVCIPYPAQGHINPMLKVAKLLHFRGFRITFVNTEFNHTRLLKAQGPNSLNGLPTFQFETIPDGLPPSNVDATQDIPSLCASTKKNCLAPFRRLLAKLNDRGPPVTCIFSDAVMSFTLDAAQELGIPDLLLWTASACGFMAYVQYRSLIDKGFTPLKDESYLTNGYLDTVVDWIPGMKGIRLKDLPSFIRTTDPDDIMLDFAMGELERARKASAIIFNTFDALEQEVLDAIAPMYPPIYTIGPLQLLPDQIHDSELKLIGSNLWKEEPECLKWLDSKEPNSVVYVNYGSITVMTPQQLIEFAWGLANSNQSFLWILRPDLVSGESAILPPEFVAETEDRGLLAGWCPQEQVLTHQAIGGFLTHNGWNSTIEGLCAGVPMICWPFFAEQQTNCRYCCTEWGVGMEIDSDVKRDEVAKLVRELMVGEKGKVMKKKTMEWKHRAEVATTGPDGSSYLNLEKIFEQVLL
Protocol: (§1) In the initial screening, each reaction mixture (200 μL in total) contained Tris-HCl buffer (100 mM, pH 8, 10 mM 2-mercaptoethanol), 37 pmol UDP-[^14C]glucose (0.01 μCi, Biotrend, Köln, Germany), substrate (50 μL of a 1 mg/mL stock solution) and purified protein (0.5-0.8 μg/μL). […] The organic phase was mixed with 2 mL Pro Flow P+ cocktail (Meridian Biotechnologies Ltd., Epsom, UK) and radioactivity was determined by liquid scintillation counting (LSC, Tri-Carb 2800TR, Perkin Elmer, Waltham Mass., USA). Additionally, negative controls without substrate were performed.
(§2) The recombinant proteins were expressed with an N-terminal GST-tag, affinity purified and verified by SDS-PAGE and Western Blot using GST-specific antibody.

VvGT16 [2] = biological target: T2, VvGT16 (Vitis vinifera, UniProt F6HTJ4); experiment: as above; format: biochemical
T2 sequence (F6HTJ4 entry or part of it): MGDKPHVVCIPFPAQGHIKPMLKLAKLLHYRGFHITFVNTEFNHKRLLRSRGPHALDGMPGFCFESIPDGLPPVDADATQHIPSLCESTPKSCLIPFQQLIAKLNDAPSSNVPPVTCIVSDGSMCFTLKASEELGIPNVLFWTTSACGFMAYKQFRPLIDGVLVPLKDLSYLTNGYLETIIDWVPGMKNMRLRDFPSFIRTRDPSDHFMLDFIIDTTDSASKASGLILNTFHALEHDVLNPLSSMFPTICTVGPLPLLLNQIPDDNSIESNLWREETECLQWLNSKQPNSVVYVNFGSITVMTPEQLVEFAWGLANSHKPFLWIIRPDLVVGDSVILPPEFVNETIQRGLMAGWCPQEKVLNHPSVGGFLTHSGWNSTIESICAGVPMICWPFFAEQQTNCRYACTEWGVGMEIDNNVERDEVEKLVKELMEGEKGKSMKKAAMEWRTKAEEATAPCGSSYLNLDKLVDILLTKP
Protocol: as §1, §2

VvGT15c [3] = biological target: T3, VvGT15c (Vitis vinifera, UniProt A0ABY9C1E0); experiment: as above; format: biochemical
T3 sequence (A0ABY9C1E0 entry or part of it): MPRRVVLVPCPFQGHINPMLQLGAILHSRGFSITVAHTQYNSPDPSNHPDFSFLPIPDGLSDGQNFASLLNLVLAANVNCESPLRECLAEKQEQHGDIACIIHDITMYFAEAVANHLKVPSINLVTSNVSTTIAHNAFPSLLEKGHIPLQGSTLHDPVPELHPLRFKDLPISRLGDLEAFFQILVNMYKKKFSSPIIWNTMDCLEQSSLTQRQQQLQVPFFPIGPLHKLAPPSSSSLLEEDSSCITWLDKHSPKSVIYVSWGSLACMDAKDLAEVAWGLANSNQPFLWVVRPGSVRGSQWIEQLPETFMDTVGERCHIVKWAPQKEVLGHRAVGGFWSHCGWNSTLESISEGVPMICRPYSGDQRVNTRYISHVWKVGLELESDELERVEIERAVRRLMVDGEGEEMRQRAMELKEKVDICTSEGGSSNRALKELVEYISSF
Protocol: as §1, §2

VvGT15a [4] = biological target: T4, VvGT15a (Vitis vinifera, UniProt A0ABY9C1E0); experiment: as above; format: biochemical
Protocol: as §1, §2

VvGT15b [5] = biological target: T5, VvGT15b (Vitis vinifera, UniProt A0ABY9C1E0); format: biochemical; settings: UDP-glucose fixed 833 μM (for UDP-glucose: geraniol fixed 1.25 mM), Tris-HCl pH 7.5, 30° C.
T5 sequence (A0ABY9C1E0 entry or part of it): as above
Protocol: (§3) The measurements were performed under the following conditions. […] Radioactivity was determined by LSC.

VvGT15c [6] = biological target: T3, VvGT15c; format: biochemical; settings: UDP-glucose fixed 833 μM (for UDP-glucose: geraniol fixed 1.25 mM), Tris-HCl pH 7.5, 30° C.
Protocol: as §3

VvGT15a [7] = biological target: T4, VvGT15a; format: biochemical; settings: UDP-glucose fixed 833 μM (for UDP-glucose: geraniol fixed 1.25 mM), Tris-HCl pH 7.5, 30° C.
Protocol: as §3

VvGT15b [8] = biological target: T5, VvGT15b; experiment: Substrate screening, radiochemical analysis with UDP-[14C]glucose; format: biochemical
Protocol: as §1, §2

VvGT16 [9] = biological target: T2, VvGT16; settings: UDP-glucose fixed 512.5 μM (for UDP-glucose: geraniol fixed 1.25 mM), Tris-HCl pH 8.5, 30° C.
Protocol: as §3

VvGT14a [10] = biological target: T1, VvGT14a; settings: for kcat/KM of VvGT14a higher than the value for UGT85B1 from Sorghum bicolor: VvGT14a versus UGT85B1; for Km / kcat: pH 8.5
CaUGT2 = settings: CaUGT2, natural substrate; cited from earlier work
VvGT1 = biological target: T6, VvGT1 (Vitis vinifera, UniProt P51094); settings: VvGT1, natural substrate; cited from earlier work
T6 sequence (P51094 1-456): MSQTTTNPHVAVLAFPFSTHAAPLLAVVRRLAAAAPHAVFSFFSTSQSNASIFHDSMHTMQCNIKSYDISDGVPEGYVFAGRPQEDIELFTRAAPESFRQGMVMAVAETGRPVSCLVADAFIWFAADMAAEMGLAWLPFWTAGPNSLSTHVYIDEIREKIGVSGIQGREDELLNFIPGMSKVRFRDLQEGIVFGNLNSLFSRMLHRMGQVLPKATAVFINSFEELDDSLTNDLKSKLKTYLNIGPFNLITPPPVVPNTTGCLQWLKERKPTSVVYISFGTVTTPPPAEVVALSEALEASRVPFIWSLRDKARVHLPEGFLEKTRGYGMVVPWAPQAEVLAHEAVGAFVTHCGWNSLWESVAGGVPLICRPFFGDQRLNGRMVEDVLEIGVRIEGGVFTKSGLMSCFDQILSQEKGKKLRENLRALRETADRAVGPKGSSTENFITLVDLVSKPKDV

UGT71G1 = settings: cited from earlier work
VvGT5 = settings: cited from earlier work
VvGT6 = settings: cited from earlier work
[11] = substrate: CC(C)=CCC[C@H](C)CCO; experiment: purified protein, by the assay type; settings: UDP-glucose fixed 833 μM (for UDP-glucose: geraniol fixed 1.25 mM), Tris-HCl pH 7.5, 30° C.
[12] = substrate: CC(C)=CCC/C(C)=C\CO; experiment: purified protein, by the assay type; format: biochemical, Vitis vinifera; settings: UDP-glucose fixed 833 μM (for UDP-glucose: geraniol fixed 1.25 mM), Tris-HCl pH 7.5, 30° C.

Molecule: CC(C)=CCO [3-methyl-2-butenol]
- conversion as substrate (in words) (VvGT14a [1]): catalytic activity
- conversion as substrate (in words) (VvGT16 [2]): transformed

Molecule: C=C(C)CCO [3-methyl-3-butenol]
- conversion as substrate (in words) (VvGT14a [1]): catalytic activity

Molecule: C=CC(C)(O)CC/C=C(\C)CO (stereo not shown) [8-hydroxylinalool]
- conversion as substrate (in words) (VvGT14a [1]): catalytic activity
- conversion as substrate (in words) (VvGT15c [3]): able to use
- conversion as substrate (in words) (VvGT15a [4]): able to use

Molecule: CC(C)=CCC/C(C)=C/CO [Geraniol, (E)-3,7-dimethyl-2,6-octadien-1-ol]
- Km (VvGT15b [5]): 81 µM
- kcat (VvGT15b [5]): 0.10 s⁻¹
- kcat (VvGT15b [5]; listed as geraniol): 0.1 s⁻¹
- Km (VvGT15c [6]): 43 µM
- kcat (VvGT15c [6]): 0.17 s⁻¹
- Km (VvGT15a [7]): 63 µM
- kcat (VvGT15a [7]): 0.12 s⁻¹
- conversion as substrate (in words) (VvGT15b [8]): glucosylated primarily
- conversion as substrate (in words) (VvGT14a [1]): preferred
- conversion as substrate (in words) (VvGT15c [3]): glucosylated primarily
- conversion as substrate (in words) (VvGT15a [4]): glucosylated primarily
- kcat (VvGT16 [9]): 0.015 s⁻¹
- kcat/KM of VvGT14a higher than the value for UGT85B1 from Sorghum bicolor (VvGT14a [10]): 4 fold
- Km (VvGT14a [10]): 9 µM
- kcat (VvGT14a [10]): 0.02 s⁻¹

Molecule: CC(C)=CCC/C(C)=C\CO [Nerol, (Z)-3,7-dimethyl-2,6-octadien-1-ol]
- conversion as substrate (in words) (VvGT15b [8]): glucosylated primarily
- conversion as substrate (in words) (VvGT16 [2]): transformed
- conversion as substrate (in words) (VvGT15c [3]): glucosylated primarily
- conversion as substrate (in words) (VvGT15a [4]): glucosylated primarily
- kcat (VvGT16 [9]): 0.009 s⁻¹
- kcat/KM of VvGT14a higher than the value for UGT85B1 from Sorghum bicolor (VvGT14a [10]): 40 fold
- Km (VvGT14a [10]): 10 µM
- kcat (VvGT14a [10]): 0.02 s⁻¹

Molecule: OCc1ccccc1 [benzyl alcohol]
- conversion as substrate (in words) (VvGT14a [1]): catalytic activity
- conversion as substrate (in words) (VvGT16 [2]): highest relative activity

Molecule: CC/C=C\CCO [cis 3-hexenol]
- conversion as substrate (in words) (VvGT14a [1]): catalytic activity
- conversion as substrate (in words) (VvGT16 [2]): transformed

Molecule: COc1cc(/C=C/C(=O)CC(=O)/C=C/c2ccc(O)c(OC)c2)ccc1O [curcumin]
- Km (CaUGT2): 43.9 µM
- kcat (CaUGT2): 0.0165 s⁻¹

Molecule: C=CCc1ccc(O)c(OC)c1 [eugenol]
- conversion as substrate (in words) (VvGT14a [1]): catalytic activity

Molecule: CC(C)=CCCC(C)=CCCC(C)=CCO [farnesol]
- conversion as substrate (in words) (VvGT14a [1]): catalytic activity
- conversion as substrate (in words) (VvGT15a [4]): low activity

Molecule: CCCCCCO [hexanol]
- conversion as substrate (in words) (VvGT15b [8]): glucosylated primarily
- conversion as substrate (in words) (VvGT15c [3]): glucosylated primarily
- conversion as substrate (in words) (VvGT15a [4]): glucosylated primarily

Molecule: N#CC(O)c1ccccc1 (stereo not shown) [mandelonitrile]
- conversion as substrate (in words) (VvGT15b [8]): not accepted at all
- conversion as substrate (in words) (VvGT14a [1]): catalytic activity
- conversion as substrate (in words) (VvGT14a [1]; listed as Mandelonitrile): poor substrate
- conversion as substrate (in words) (VvGT15c [3]): not accepted at all
- conversion as substrate (in words) (VvGT15a [4]): not accepted at all

Molecule: CCCCCCCCO [octanol]
- conversion as substrate (in words) (VvGT15b [8]): glucosylated primarily
- conversion as substrate (in words) (VvGT15c [3]): glucosylated primarily
- conversion as substrate (in words) (VvGT15a [4]): glucosylated primarily

Molecule: O=c1c(O)c(-c2ccc(O)c(O)c2)oc2cc(O)cc(O)c12 [quercetin]
- Km (VvGT1): 31 µM
- kcat (VvGT1): 0.075 s⁻¹
- Km (UGT71G1): 57 µM
- kcat (UGT71G1): 0.0175 s⁻¹
- Km (VvGT5): 5.6 µM
- kcat (VvGT5): 7.16 s⁻¹
- Km (VvGT6): 9.24 µM
- kcat (VvGT6): 0.76 s⁻¹

Molecule: CCC/C=C/CO [trans 2-hexenol]
- conversion as substrate (in words) (VvGT14a [1]): catalytic activity
- conversion as substrate (in words) (VvGT16 [2]): transformed
- conversion as substrate (in words) (VvGT15c [3]): able to use
- conversion as substrate (in words) (VvGT15a [4]): able to use

B1: VvGT15a (Vitis vinifera) (protein)
chain: MPRRVVLVPCPFQGHINPMLQLGAILHSRGFSITVAHTQYNSPDPSNHPDFSFLPIPDGLSDGQNFASLLNLVLAANVNCESPLREYLAEKQEQHGDIACIIHDITMYFAEAVANHLKVPSINLVTSNVSTTIAHNAFPSLLEKGHIPLQGSTLHDPVPELHPLRFKDLPISRLGDLEVFFQILVNMYKKKFSSPIIWNTMDCLEQSSLTQRQQQLQVPFFPIGPLHKLAPPSSSSLLEEDSSCITWLDKQSPKSVIYVSWGSLACMDAKDLAEVAWGLANSNQPFLWVVRPGSVRGSQWIEQLPETFMDTVGERCHIVKWAPQKEVLGHRAVGGFWSHCGWNSTLESISEGVPMICRPYSGDQRVNTRYISHVWKVGLELESDELERVEIERAVRRLMVDGEGEEMRQRAMELKEKVEICTSEGGSSNRALKELVEYISSF
- Km ([11]; other: VvGT15a): 29 ± 3.0 µM
- kcat ([11]; other: VvGT15a): 0.02 s⁻¹
- kcat/Km ([11]; other: VvGT15a): 900 M⁻¹ s⁻¹
- Km ([12]; other: VvGT15a): 48 ± 1.7 µM
- kcat ([12]; other: VvGT15a): 0.04 s⁻¹
- kcat/Km ([12]; other: VvGT15a): 700 M⁻¹ s⁻¹

B2: VvGT15b (Vitis vinifera) (protein)
chain: B1 chain with Y87C, V179A, Q251H, E419D
- Km ([11]; other: VvGT15b): 55 ± 1.3 µM
- kcat ([11]; other: VvGT15b): 0.03 s⁻¹
- kcat/Km ([11]; other: VvGT15b): 600 M⁻¹ s⁻¹
- Km ([12]; other: VvGT15b): 40 ± 3.7 µM
- kcat ([12]; other: VvGT15b): 0.03 s⁻¹
- kcat/Km ([12]; other: VvGT15b): 800 M⁻¹ s⁻¹

B3: VvGT15c (Vitis vinifera) (protein)
chain: B1 chain with Y87C, V179A, Q251H, E419D
- Km ([11]; other: VvGT15c): 20 ± 1.6 µM
- kcat ([11]; other: VvGT15c): 0.03 s⁻¹
- kcat/Km ([11]; other: VvGT15c): 1800 M⁻¹ s⁻¹
- Km ([12]; other: VvGT15c): 28 ± 0.9 µM
- kcat ([12]; other: VvGT15c): 0.06 s⁻¹
- kcat/Km ([12]; other: VvGT15c): 2200 M⁻¹ s⁻¹
